In ChEMBL document CHEMBL3797078, “Potent, selective and orally bioavailable leucine-rich repeat kinase 2 (LRRK2) inhibitors” (Bioorg Med Chem Lett, 2016):

Tests used:
[1] = target: Leucine-rich repeat serine/threonine-protein kinase 2 (Homo sapiens, UniProt Q5S007)
Description: Inhibition of GST-tagged human recombinant wild type LRRK2 using fluorescein- ERM as substrate after 1 hr by TR-FRET assay

[2] = in vivo; conditions: rat, iv, 2 mg/kg
Description: Half life in rat at 2 mg/kg, iv

[3] = in vivo; conditions: rat, cerebrospinal fluid, ip, 5 mg/kg
Description: Drug uptake in CSF in rat at 5 mg/kg, ip after 1 hr

[4] = in vivo; conditions: rat, po, 10 mg/kg
[5] = in vivo; conditions: rat, po, 10 mg/kg; remark: listed apart in the source
[6] = in vivo; conditions: rat, po, 10 mg/kg; remark: listed apart in the source
[7] = in vivo; conditions: rat, plasma, iv, 2 mg/kg
[8] = in vivo; conditions: rat, plasma, ip, 5 mg/kg
Description: Plasma concentration in rat at 5 mg/kg, ip after 1 hr

[9] = in vitro; conditions: rat, in vivo
Description: Intrinsic clearance in rat

[10] = Protein binding in rat plasma; format: ADME, cell-free; conditions: read-out: PPB (converted)

Sequence of Leucine-rich repeat serine/threonine-protein kinase 2 (Q5S007 whole entry): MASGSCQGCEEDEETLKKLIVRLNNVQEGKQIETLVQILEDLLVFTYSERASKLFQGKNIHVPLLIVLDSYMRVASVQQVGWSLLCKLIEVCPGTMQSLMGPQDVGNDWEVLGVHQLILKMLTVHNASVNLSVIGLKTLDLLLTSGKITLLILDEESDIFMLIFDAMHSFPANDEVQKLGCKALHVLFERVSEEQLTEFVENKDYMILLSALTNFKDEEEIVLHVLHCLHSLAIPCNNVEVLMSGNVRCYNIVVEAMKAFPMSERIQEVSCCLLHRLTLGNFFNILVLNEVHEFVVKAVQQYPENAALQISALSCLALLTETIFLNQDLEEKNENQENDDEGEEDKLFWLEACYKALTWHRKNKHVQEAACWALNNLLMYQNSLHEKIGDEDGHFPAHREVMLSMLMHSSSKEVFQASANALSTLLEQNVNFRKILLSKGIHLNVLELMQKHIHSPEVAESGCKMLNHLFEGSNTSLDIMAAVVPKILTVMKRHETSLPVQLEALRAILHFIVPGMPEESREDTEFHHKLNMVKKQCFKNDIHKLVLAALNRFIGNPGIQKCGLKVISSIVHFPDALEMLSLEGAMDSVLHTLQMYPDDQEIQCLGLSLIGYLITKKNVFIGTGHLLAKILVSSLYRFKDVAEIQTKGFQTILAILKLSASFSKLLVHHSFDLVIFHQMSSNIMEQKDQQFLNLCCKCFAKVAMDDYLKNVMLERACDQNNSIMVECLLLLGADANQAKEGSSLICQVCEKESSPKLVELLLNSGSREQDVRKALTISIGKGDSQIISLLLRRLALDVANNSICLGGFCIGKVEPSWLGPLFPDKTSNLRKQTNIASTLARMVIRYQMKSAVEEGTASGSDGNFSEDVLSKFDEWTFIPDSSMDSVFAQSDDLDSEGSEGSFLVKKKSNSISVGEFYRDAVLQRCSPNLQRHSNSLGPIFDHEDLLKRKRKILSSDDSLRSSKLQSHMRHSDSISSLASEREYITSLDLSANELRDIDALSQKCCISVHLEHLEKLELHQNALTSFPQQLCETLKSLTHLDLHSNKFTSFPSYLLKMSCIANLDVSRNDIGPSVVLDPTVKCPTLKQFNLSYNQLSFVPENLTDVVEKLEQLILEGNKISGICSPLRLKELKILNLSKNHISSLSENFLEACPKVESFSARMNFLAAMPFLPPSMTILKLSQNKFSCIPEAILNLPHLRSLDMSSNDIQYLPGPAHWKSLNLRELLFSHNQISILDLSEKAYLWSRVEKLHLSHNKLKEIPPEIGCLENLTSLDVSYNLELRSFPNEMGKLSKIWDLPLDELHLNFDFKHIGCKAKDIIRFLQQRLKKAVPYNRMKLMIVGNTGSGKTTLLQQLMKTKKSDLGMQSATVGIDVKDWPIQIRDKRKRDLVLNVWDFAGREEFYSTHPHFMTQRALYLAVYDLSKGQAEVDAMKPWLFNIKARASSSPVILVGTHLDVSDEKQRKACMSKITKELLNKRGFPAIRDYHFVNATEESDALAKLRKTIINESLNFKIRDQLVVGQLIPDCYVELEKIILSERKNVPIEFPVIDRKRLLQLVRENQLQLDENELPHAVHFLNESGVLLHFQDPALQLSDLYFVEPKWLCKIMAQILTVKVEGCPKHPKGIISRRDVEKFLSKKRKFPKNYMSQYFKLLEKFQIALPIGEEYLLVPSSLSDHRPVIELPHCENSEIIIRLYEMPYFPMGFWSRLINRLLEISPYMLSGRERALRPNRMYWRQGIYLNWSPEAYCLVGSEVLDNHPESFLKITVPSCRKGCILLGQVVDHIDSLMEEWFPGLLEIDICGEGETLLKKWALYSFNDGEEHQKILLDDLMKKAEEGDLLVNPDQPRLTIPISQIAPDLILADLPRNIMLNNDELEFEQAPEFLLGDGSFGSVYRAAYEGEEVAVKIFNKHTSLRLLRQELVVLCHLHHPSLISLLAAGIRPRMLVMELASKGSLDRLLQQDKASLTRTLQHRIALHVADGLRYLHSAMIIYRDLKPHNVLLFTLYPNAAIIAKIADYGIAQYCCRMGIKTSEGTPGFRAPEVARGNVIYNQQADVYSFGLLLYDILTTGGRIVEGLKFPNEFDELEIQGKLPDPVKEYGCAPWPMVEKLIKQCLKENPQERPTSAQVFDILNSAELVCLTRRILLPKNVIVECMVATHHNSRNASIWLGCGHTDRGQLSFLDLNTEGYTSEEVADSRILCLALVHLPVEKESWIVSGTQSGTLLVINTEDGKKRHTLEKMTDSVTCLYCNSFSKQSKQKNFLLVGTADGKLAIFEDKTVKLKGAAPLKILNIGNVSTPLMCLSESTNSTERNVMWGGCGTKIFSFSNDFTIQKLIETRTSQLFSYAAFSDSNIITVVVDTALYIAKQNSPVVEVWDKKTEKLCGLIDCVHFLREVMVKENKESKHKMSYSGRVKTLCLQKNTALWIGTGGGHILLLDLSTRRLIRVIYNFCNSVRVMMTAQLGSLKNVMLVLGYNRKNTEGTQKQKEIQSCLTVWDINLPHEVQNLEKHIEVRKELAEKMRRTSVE

| Structure (SMILES) | Ki [1] [nM] | further results |
| --- | --- | --- |
| CSc1sc(-c2cc[nH]n2)c2c1C(=O)CC(C)(C)C2 | 377 |  |
| CC1(C)CC(=O)c2c(SCCO)sc(-c3cc[nH]n3)c2C1 | 515 |  |
| CCSc1sc(-c2cc[nH]n2)c2c1C(=O)CC(C)(C)C2 | 156 |  |
| CC(C)Sc1sc(-c2cc[nH]n2)c2c1C(=O)CC(C)(C)C2 | 256 |  |
| O=C1NCCc2c(-c3cc[nH]n3)sc(SC3CC3)c21 | 614 |  |
| CC[C@H]1CNC(=O)c2c(SCC3CC3)sc(-c3cc[nH]n3)c21 | 58 |  |
| O=C1NCCc2c(-c3cc[nH]n3)sc(Sc3ccccc3)c21 | 4460 |  |
| CSc1sc(-c2cc[nH]n2)c2c1C(=O)N(C)CC2 | 5570 |  |
| CSc1sc(-c2cc[nH]n2)c2c1C(=O)NC1(CCCC1)C2 | 411 |  |
| CCCSc1sc(-c2cc[nH]n2)c2c1C(=O)NC[C@@H]2CC | 68 |  |
| CSc1sc(-c2cc[nH]n2)c2c1C(=O)NC[C@H]2Cc1ccccc1 | 342 |  |
| CSc1sc(-c2cc[nH]n2)c2c1C(=O)N(c1ccccc1)CC2 | 4710 |  |
| O=C1NCCc2c(-c3cc[nH]n3)sc(SC3CCCC3)c21 | 459 |  |
| CCCSc1sc(-c2cc[nH]n2)c2c1C(=O)NC[C@@H]2C | 84 | half-life [2]: 3.6 h; concentration at 1 h [3]: 150 nM; Cmax [4]: 16000 nM; AUC [5]: 46.1 µM·h; bioavailability [6]: 98%; clearance [7]: 11.9 mL/min/kg; concentration at 1 h [8]: 24400 nM; CLint scaled [9]: 1200 mL/min/kg |
| CCCc1sc(-c2cc[nH]n2)c2c1C(=O)CC(C)(C)C2 | 5290 |  |
| O=C1CCCc2c(-c3cc[nH]n3)sc(NC3CCCC3)c21 | > 10000 |  |
| CC1(C)CC(=O)c2c(S(C)(=O)=O)sc(-c3cc[nH]n3)c2C1 | 7130 |  |
| CC1(C)CC(=O)c2c(SCc3ccccc3)sc(-c3cc[nH]n3)c2C1 | > 10000 |  |
| CSc1sc(-c2cc[nH]n2)c2c1C(=O)NC1(CCC1)C2 | 233 |  |
| CC1(C)CC(=O)c2c(NC3CCCC3)sc(-c3cc[nH]n3)c2C1 | 2790 |  |
| CSc1sc(-c2cc[nH]n2)c2c1C(=O)NC1(CC1)C2 | > 10000 |  |
| CSc1sc(-c2cc[nH]n2)c2c1C(=O)NC[C@@H]2C | 319 |  |

| Structure (SMILES) | Ki [1] [nM] | further results |
| --- | --- | --- |
| CSc1sc(-c2cc[nH]n2)c2c1C(=O)N[C@H](c1cccnc1)C2 | > 10000 |  |
| CSc1sc(-c2ccn(C)n2)c2c1C(=O)CC(C)(C)C2 | 5580 |  |
| CCSc1sc(-c2cc[nH]n2)c2c1C(=O)NCC2 | 589 |  |
| CSc1sc(-c2cc[nH]n2)c2c1C(=O)CCC2 | 312 | half-life [2]: 6.5 h; concentration at 1 h [3]: 50 nM; Cmax [4]: 1600 nM; AUC [5]: 3.8 µM·h; bioavailability [6]: 33%; clearance [7]: 56 mL/min/kg; concentration at 1 h [8]: 2330 nM; CLint scaled [9]: 6500 mL/min/kg |
| Cc1nnc(Sc2sc(-c3cc[nH]n3)c3c2C(=O)CC(C)(C)C3)s1 | 993 |  |
| O=C1NCCc2c(-c3cc[nH]n3)sc(SC3CCCCC3)c21 | 919 |  |
| CC1(C)CC(=O)c2c(OC3CCCC3)sc(-c3cc[nH]n3)c2C1 | 475 |  |
| CC1(C)CC(=O)c2c(SCC3CC3)sc(-c3cc[nH]n3)c2C1 | 172 |  |
| CSc1sc(-c2cc[nH]n2)c2c1C(=O)NC[C@H]2C | 603 |  |
| CCCSc1sc(-c2cc[nH]n2)c2c1C(=O)NCC2 | 572 |  |
| CSc1sc(-c2cc[nH]n2)c2c1C(=O)NCC2 | 3410 | half-life [2]: 1.4 h; concentration at 1 h [3]: 500 nM; Cmax [4]: 4800 nM; AUC [5]: 14 µM·h; bioavailability [6]: 70%; clearance [7]: 47.5 mL/min/kg; concentration at 1 h [8]: 28300 nM; CLint scaled [9]: 1300 mL/min/kg |
| O=C1CCCc2c(-c3cc[nH]n3)sc(SC3CCCC3)c21 | 295 |  |
| CC1(C)CC(=O)c2c(SCCc3ccccc3)sc(-c3cc[nH]n3)c2C1 | 1890 |  |
| CC(C)Sc1sc(-c2cc[nH]n2)c2c1C(=O)NCC2 | 988 |  |
| CC1(C)CC(=O)c2c(SC3CCCC3)sc(-c3cc[nH]n3)c2C1 | 389 | half-life [2]: 1.2 h; concentration at 1 h [3]: 10 nM; Cmax [4]: 120 nM; AUC [5]: 0.01 µM·h; bioavailability [6]: 0.2%; clearance [7]: 95.5 mL/min/kg; fraction unbound [10]: 0.007; concentration at 1 h [8]: 970 nM |
| C[C@H]1CNC(=O)c2c(SCC3CC3)sc(-c3cc[nH]n3)c21 | 83 |  |
| CSc1sc(-c2cc[nH]n2)c2c1C(=O)NC(C)C2 (racemic) | 1240 |  |
| CSc1sc(-c2cc[nH]n2)c2c1C(=O)NC(C1CCC1)C2 (racemic) | 1050 |  |
| CSc1sc(-c2cc[nH]n2)c2c1C(=O)NC(C(F)(F)F)C2 (racemic) | 501 |  |
| CSc1sc(-c2cc[nH]n2)c2c1C(=O)NC(Cc1ccccc1)C2 (racemic) | 928 |  |
| CSc1sc(-c2cc[nH]n2)c2c1C(=O)NC(c1cccc(F)c1)C2 (racemic) | 3290 |  |
| CSc1sc(-c2cc[nH]n2)c2c1C(=O)NC(c1ccc(F)cc1)C2 (racemic) | 271 |  |
